Legend:
Format in all cases: in vivo
[1] = tested on: chickweed; assay: Test Example 3: weedkilling efficacy through soil treatment; N: chickweed; conditions: soil treatment, treatment dosage 315 g/ha
Text: (§1) Weedkilling Efficacy Test Through Soil Treatment
(§2) Sterilized diluvial soil was introduced into 21 cm long, 13 cm wide, 7 cm deep plastic boxes, and seeds of crabgrass, green foxtail, barnyard grass, wild oat, black-grass, Italian ryegrass, common wind-grass, Indian mallow, redroot pigweed, fig-leafed goosefoot, chickweed, catchweed, birds-eye speedwell, corn, soybean, rice, wheat, beet and rapeseed were each spot-sown, and covered with about 1.5 cm of soil. Next, emulsions of compounds of the present invention prepared according to compounding example 2 were diluted with water to give the specified dosages, and applied uniformly onto the soil surface with a small sprayer. The plants were grown by placing the plastic boxes in a greenhouse at 25 to 30° C., and 3 weeks after the pesticide treatment the effect on each type of plant was investigated on the basis of the assessment criteria of test example 1.
(§3) A: barnyard grass, B: bulrush, C: oval-leafed pondweed, D: crabgrass, E: green foxtail, F: barnyard grass, G: wild oat, H: black-grass, I: Italian ryegrass, J: common wind-grass, K: Indian mallow, L: redroot pigweed, M: fig-leafed goosefoot, N: chickweed, O: catchweed, p: birds-eye speedwell, a: transplanted rice, b: directly sown rice, c: corn, d: soybean, e: wheat, f: beet, g: rapeseed
(§4) Further, pesticide dosage (g/ha) indicates the concentration regulated such that treatment was with only the stated number of grams (g), when calculated per hectare (ha).

[2] = tested on: wheat; assay: Test Example 3: soil treatment, effect on crop; e: wheat; conditions: soil treatment, treatment dosage 315 g/ha
Text: as §1, §2, §3, §4

[3] = tested on: barnyard grass; assay: Test Example 1: weedkilling efficacy, preemergent weed treatment in the submerged state; A: barnyard grass; conditions: treatment dosage 252 g/ha
Summary of the method: (§5)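 Alluvial soil in Wagner pots flooded to 4 cm; barnyard grass, bulrush and oval-leafed pondweed seeds sown, then 2.5-leaf rice seedlings transplanted. Same day, emulsified compound diluted in water to set g/ha dosages and applied to water surface; greenhouse 25–30 °C, effect scored by criteria after 3 weeks.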

[4] = tested on: Italian ryegrass; assay: Test Example 3: weedkilling efficacy through soil treatment; I: Italian ryegrass; conditions: soil treatment, treatment dosage 315 g/ha
Text: as §1, §2, §3, §4

[5] = tested on: transplanted rice; assay: Test Example 1: preemergent weed treatment in the submerged state, effect on crop; a: transplanted rice; conditions: treatment dosage 252 g/ha
Summary of the method: as §5

[6] = tested on: oval-leafed pondweed; assay: Test Example 1: weedkilling efficacy, preemergent weed treatment in the submerged state; C: oval-leafed pondweed; conditions: treatment dosage 252 g/ha
Summary of the method: as §5

[7] = tested on: corn; assay: Test Example 3: soil treatment, effect on crop; c: corn; conditions: soil treatment, treatment dosage 315 g/ha
Text: as §1, §2, §3, §4

[8] = tested on: wild oat; assay: Test Example 3: weedkilling efficacy through soil treatment; G: wild oat; conditions: soil treatment, treatment dosage 315 g/ha
Text: as §1, §2, §3, §4

[9] = tested on: beet; assay: Test Example 3: soil treatment, effect on crop; f: beet; conditions: soil treatment, treatment dosage 315 g/ha
Text: as §1, §2, §3, §4

[10] = tested on: redroot pigweed; assay: Test Example 3: weedkilling efficacy through soil treatment; L: redroot pigweed; conditions: soil treatment, treatment dosage 315 g/ha
Text: as §1, §2, §3, §4

[11] = tested on: black-grass; assay: Test Example 3: weedkilling efficacy through soil treatment; H: black-grass; conditions: soil treatment, treatment dosage 315 g/ha
Text: as §1, §2, §3, §4

[12] = tested on: Indian mallow; assay: Test Example 3: weedkilling efficacy through soil treatment; K: Indian mallow; conditions: soil treatment, treatment dosage 315 g/ha
Text: as §1, §2, §3, §4

[13] = tested on: bulrush; assay: Test Example 2: weedkilling efficacy, growth period weed treatment in the submerged state; B: bulrush; conditions: treatment dosage 252 g/ha
Summary of the method: (§6)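 First, alluvial soil in pots is flooded to 4 cm and mixed seed is sown. Next, plants grow in a greenhouse at 25 to 30° C until the 1-2 leaf stage. Then diluted emulsion is applied onto the water surface at the given g/ha rate, and injury is assessed after 3 weeks.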

[14] = tested on: soybean; assay: Test Example 3: soil treatment, effect on crop; d: soybean; conditions: soil treatment, treatment dosage 315 g/ha
Text: as §1, §2, §3, §4

[15] = tested on: oval-leafed pondweed; assay: Test Example 2: weedkilling efficacy, growth period weed treatment in the submerged state; C: oval-leafed pondweed; conditions: treatment dosage 252 g/ha
Summary of the method: as §6

[16] = tested on: green foxtail; assay: Test Example 3: weedkilling efficacy through soil treatment; E: green foxtail; conditions: soil treatment, treatment dosage 315 g/ha
Text: as §1, §2, §3, §4

[17] = tested on: fig-leafed goosefoot; assay: Test Example 3: weedkilling efficacy through soil treatment; M: fig-leafed goosefoot; conditions: soil treatment, treatment dosage 315 g/ha
Text: as §1, §2, §3, §4

[18] = tested on: barnyard grass; assay: Test Example 2: weedkilling efficacy, growth period weed treatment in the submerged state; A: barnyard grass; conditions: treatment dosage 252 g/ha
Summary of the method: as §6

[19] = tested on: crabgrass; assay: Test Example 3: weedkilling efficacy through soil treatment; D: crabgrass; conditions: soil treatment, treatment dosage 315 g/ha
Text: as §1, §2, §3, §4

[20] = tested on: bulrush; assay: Test Example 1: weedkilling efficacy, preemergent weed treatment in the submerged state; B: bulrush; conditions: treatment dosage 252 g/ha
Summary of the method: as §5

[21] = tested on: directly sown rice; assay: Test Example 3: soil treatment, effect on crop; b: directly sown rice; conditions: soil treatment, treatment dosage 315 g/ha
Text: as §1, §2, §3, §4

| Structure (SMILES) | N: chickweed, weedkilling efficacy grade [1] | e: wheat, effect on crop grade [2] | A: barnyard grass, weed kill grade [3] | I: Italian ryegrass, weedkilling efficacy grade [4] | a: transplanted rice, effect on crop grade [5] | C: oval-leafed pondweed, weed kill grade [6] | c: corn, effect on crop grade [7] | G: wild oat, weedkilling efficacy grade [8] | f: beet, effect on crop grade [9] | L: redroot pigweed, weedkilling efficacy grade [10] | H: black-grass, weedkilling efficacy grade [11] | K: Indian mallow, weedkilling efficacy grade [12] | B (bulrush) weedkilling efficacy grade [13] | d: soybean, effect on crop grade [14] | C (oval-leafed pondweed) weedkilling efficacy grade [15] | E: green foxtail, weedkilling efficacy grade [16] | M: fig-leafed goosefoot, weedkilling efficacy grade [17] | A (barnyard grass) weedkilling efficacy grade [18] | D: crabgrass, weedkilling efficacy grade [19] | B: bulrush, weed kill grade [20] | also measured |
| --- | --- | --- | --- | --- | --- | --- | --- | --- | --- | --- | --- | --- | --- | --- | --- | --- | --- | --- | --- | --- | --- |
| Cc1cnc(NC(=O)C(C)(C)N2COCN(c3ccccc3)C2=O)s1 [A-1-08] | 2 (weed kill ratio 20% or more, less than 40%) | 0 (weed kill ratio 5% or less (practically no effect)) | 5 (weed kill ratio 90% or more, (practically complete withering)) | 4 (weed kill ratio 70% or more, less than 90%) | 0 (weed kill ratio 5% or less (practically no effect)) | 5 (weed kill ratio 90% or more, (practically complete withering)) | 1 (weed kill ratio 5% or more, less than 20%) | 3 (weed kill ratio 40% or more, less than 70%) | 0 (weed kill ratio 5% or less (practically no effect)) | 4 (weed kill ratio 70% or more, less than 90%) | 5 (weed kill ratio 90% or more, (practically complete withering)) | 1 (weed kill ratio 5% or more, less than 20%) | 5 (weed kill ratio 90% or more, (practically complete withering)) | 0 (weed kill ratio 5% or less (practically no effect)) | 3 (weed kill ratio 40% or more, less than 70%) | 5 (weed kill ratio 90% or more, (practically complete withering)) | 2 (weed kill ratio 20% or more, less than 40%) | 4 (weed kill ratio 70% or more, less than 90%) | 5 (weed kill ratio 90% or more, (practically complete withering)) | 5 (weed kill ratio 90% or more, (practically complete withering)) | b: directly sown rice, effect on crop grade [21]: 4 (weed kill ratio 70% or more, less than 90%) |
| Cc1cc(NC(=O)C(C)(C)N2COCN(c3ccccc3)C2=O)sn1 [A-1-10] | 0 (weed kill ratio 5% or less (practically no effect)) | 0 (weed kill ratio 5% or less (practically no effect)) | 3 (weed kill ratio 40% or more, less than 70%) | 4 (weed kill ratio 70% or more, less than 90%) | 0 (weed kill ratio 5% or less (practically no effect)) | 3 (weed kill ratio 40% or more, less than 70%) | 0 (weed kill ratio 5% or less (practically no effect)) | 0 (weed kill ratio 5% or less (practically no effect)) | 4 (weed kill ratio 70% or more, less than 90%) | 4 (weed kill ratio 70% or more, less than 90%) | 2 (weed kill ratio 20% or more, less than 40%) | 3 (weed kill ratio 40% or more, less than 70%) | 5 (weed kill ratio 90% or more, (practically complete withering)) | 0 (weed kill ratio 5% or less (practically no effect)) | 0 (weed kill ratio 5% or less (practically no effect)) | 4 (weed kill ratio 70% or more, less than 90%) | 4 (weed kill ratio 70% or more, less than 90%) | 0 (weed kill ratio 5% or less (practically no effect)) | 4 (weed kill ratio 70% or more, less than 90%) | 5 (weed kill ratio 90% or more, (practically complete withering)) | b: directly sown rice, effect on crop grade [21]: 0 (weed kill ratio 5% or less (practically no effect)) |
| CC(C)(C(=O)Nc1cccc(Cl)n1)N1COCN(c2ccccc2)C1=O [A-2-07] | 4 (weed kill ratio 70% or more, less than 90%) | 3 (weed kill ratio 40% or more, less than 70%) | 5 (weed kill ratio 90% or more, (practically complete withering)) | 5 (weed kill ratio 90% or more, (practically complete withering)) | 4 (weed kill ratio 70% or more, less than 90%) | 5 (weed kill ratio 90% or more, (practically complete withering)) | 4 (weed kill ratio 70% or more, less than 90%) | 5 (weed kill ratio 90% or more, (practically complete withering)) | 5 (weed kill ratio 90% or more, (practically complete withering)) | 5 (weed kill ratio 90% or more, (practically complete withering)) | 5 (weed kill ratio 90% or more, (practically complete withering)) | 0 (weed kill ratio 5% or less (practically no effect)) | 5 (weed kill ratio 90% or more, (practically complete withering)) | 4 (weed kill ratio 70% or more, less than 90%) | 5 (weed kill ratio 90% or more, (practically complete withering)) | 5 (weed kill ratio 90% or more, (practically complete withering)) | 4 (weed kill ratio 70% or more, less than 90%) | 4 (weed kill ratio 70% or more, less than 90%) | 5 (weed kill ratio 90% or more, (practically complete withering)) | 5 (weed kill ratio 90% or more, (practically complete withering)) |  |
| CC(C)(C(=O)Nc1cc(Cl)cc(Br)n1)N1COCN(c2ccccc2)C1=O [A-2-24] | 4 (weed kill ratio 70% or more, less than 90%) | 4 (weed kill ratio 70% or more, less than 90%) | 5 (weed kill ratio 90% or more, (practically complete withering)) | 5 (weed kill ratio 90% or more, (practically complete withering)) | 0 (weed kill ratio 5% or less (practically no effect)) | 5 (weed kill ratio 90% or more, (practically complete withering)) | 0 (weed kill ratio 5% or less (practically no effect)) | 5 (weed kill ratio 90% or more, (practically complete withering)) |  | 4 (weed kill ratio 70% or more, less than 90%) | 5 (weed kill ratio 90% or more, (practically complete withering)) | 4 (weed kill ratio 70% or more, less than 90%) | 5 (weed kill ratio 90% or more, (practically complete withering)) | 1 (weed kill ratio 5% or more, less than 20%) | 5 (weed kill ratio 90% or more, (practically complete withering)) | 5 (weed kill ratio 90% or more, (practically complete withering)) | 4 (weed kill ratio 70% or more, less than 90%) | 5 (weed kill ratio 90% or more, (practically complete withering)) | 5 (weed kill ratio 90% or more, (practically complete withering)) | 5 (weed kill ratio 90% or more, (practically complete withering)) | b: directly sown rice, effect on crop grade [21]: 4 (weed kill ratio 70% or more, less than 90%) |
| CC1=C(c2ccccc2)C(=O)N(C(C)(C)C(=O)Nc2cccc(-c3ccccc3)n2)CO1 [B-2-60] |  |  |  |  |  |  |  |  |  |  |  |  | 3 (weed kill ratio 40% or more, less than 70%) |  | 3 (weed kill ratio 40% or more, less than 70%) |  |  | 4 (weed kill ratio 70% or more, less than 90%) |  |  | A (barnyard grass) weedkilling efficacy grade [3]: 5 (weed kill ratio 90% or more, (practically complete withering)); a (transplanted rice) effect on crop grade [5]: 0 (weed kill ratio 5% or less (practically no effect)); C (oval-leafed pondweed) weedkilling efficacy grade [6]: 5 (weed kill ratio 90% or more, (practically complete withering)); B (bulrush) weedkilling efficacy grade [20]: 5 (weed kill ratio 90% or more, (practically complete withering)) |

Source: US9738634B2, “Heterocyclic amide compound and herbicide” (SYNGENTA PARTICIPATIONS AG, priority 2013, dated 2017)
